Measured values reported in patent US20110039721A1, “METHOD FOR PREDICTION ABOUT CARCINOGENICITY OF SUBSTANCE IN RODENT” (Chemicals Evaluation and Research Institute, priority 2007, published 2011).

Tests used:
[1] = test system: mRNA expressed from the genes (A) to (D) in rat liver; experiment: Behavior of genes (mRNA expression level, oligo-DNA microarray) in rat liver after 28-day oral administration; format: in vivo; settings: mRNA vs vehicle control group; for Behavior of gene caused by administration of chemical substance, Gene No. 4846 / Behavior of gene caused by administration of chemical substance, Gene No. 2026 / Behavior of gene caused by administration of chemical substance, Gene No. 4218 / Behavior of gene caused by administration of chemical substance, Gene No. 6182 / Behavior of gene caused by administration of chemical substance, Gene No. 5600: gene group (A); for Behavior of gene caused by administration of chemical substance, Gene No. 4846: Unigene No. Rn.144554; for Behavior of gene caused by administration of chemical substance, Gene No. 2026 / Behavior of gene caused by administration of chemical substance, Gene No. 4218: Unigene No. Rn.167075; for Behavior of gene caused by administration of chemical substance, Gene No. 6182: Unigene No. Rn.5834; for Behavior of gene caused by administration of chemical substance, Gene No. 5600: Unigene No. Rn.9836; for Behavior of gene caused by administration of chemical substance, Gene No. 1494 / Behavior of gene caused by administration of chemical substance, Gene No. 2045 / Behavior of gene caused by administration of chemical substance, Gene No. 2203: gene group (B); for Behavior of gene caused by administration of chemical substance, Gene No. 1494: Unigene No. Rn.1430; for Behavior of gene caused by administration of chemical substance, Gene No. 2045: Unigene No. Rn.19329; for Behavior of gene caused by administration of chemical substance, Gene No. 2203: Unigene No. Rn.21240; for Behavior of gene caused by administration of chemical substance, Gene No. 533 / Behavior of gene caused by administration of chemical substance, Gene No. 725 / Behavior of gene caused by administration of chemical substance, Gene No. 1163 / Behavior of gene caused by administration of chemical substance, Gene No. 4973 / Behavior of gene caused by administration of chemical substance, Gene No. 4095 / Behavior of gene caused by administration of chemical substance, Gene No. 1334 / Behavior of gene caused by administration of chemical substance, Gene No. 6620 / Behavior of gene caused by administration of chemical substance, Gene No. 6303 / Behavior of gene caused by administration of chemical substance, Gene No. 5878 / Behavior of gene caused by administration of chemical substance, Gene No. 1131 / Behavior of gene caused by administration of chemical substance, Gene No. 1562 / Behavior of gene caused by administration of chemical substance, Gene No. 1741 / Behavior of gene caused by administration of chemical substance, Gene No. 893 / Behavior of gene caused by administration of chemical substance, Gene No. 6026 / Behavior of gene caused by administration of chemical substance, Gene No. 154 / Behavior of gene caused by administration of chemical substance, Gene No. 1993 / Behavior of gene caused by administration of chemical substance, Gene No. 813 / Behavior of gene caused by administration of chemical substance, Gene No. 2494 / Behavior of gene caused by administration of chemical substance, Gene No. 2546 / Behavior of gene caused by administration of chemical substance, Gene No. 3776 / Behavior of gene caused by administration of chemical substance, Gene No. 3929 / Behavior of gene caused by administration of chemical substance, Gene No. 1119 / Behavior of gene caused by administration of chemical substance, Gene No. 6742 / Behavior of gene caused by administration of chemical substance, Gene No. 5634: gene group (C); for Behavior of gene caused by administration of chemical substance, Gene No. 533: Unigene No. Rn.106184; for Behavior of gene caused by administration of chemical substance, Gene No. 725: Unigene No. Rn.108075; for Behavior of gene caused by administration of chemical substance, Gene No. 1163: Unigene No. Rn.11766; for Behavior of gene caused by administration of chemical substance, Gene No. 4973: Unigene No. Rn.118529; for Behavior of gene caused by administration of chemical substance, Gene No. 4095: Unigene No. Rn.119024; for Behavior of gene caused by administration of chemical substance, Gene No. 1334 / Behavior of gene caused by administration of chemical substance, Gene No. 6620: Unigene No. Rn.120914; for Behavior of gene caused by administration of chemical substance, Gene No. 6303: Unigene No. Rn.123063; for Behavior of gene caused by administration of chemical substance, Gene No. 5878: Unigene No. Rn.143213; for Behavior of gene caused by administration of chemical substance, Gene No. 1131: Unigene No. Rn.144946; for Behavior of gene caused by administration of chemical substance, Gene No. 1562: Unigene No. Rn.14744; for Behavior of gene caused by administration of chemical substance, Gene No. 1741: Unigene No. Rn.1647; for Behavior of gene caused by administration of chemical substance, Gene No. 893: Unigene No. Rn.164817; for Behavior of gene caused by administration of chemical substance, Gene No. 6026: Unigene No. Rn.167685; for Behavior of gene caused by administration of chemical substance, Gene No. 154: Unigene No. Rn.185941; for Behavior of gene caused by administration of chemical substance, Gene No. 1993: Unigene No. Rn.18728; for Behavior of gene caused by administration of chemical substance, Gene No. 813: Unigene No. Rn.201760; for Behavior of gene caused by administration of chemical substance, Gene No. 2494: Unigene No. Rn.23969; for Behavior of gene caused by administration of chemical substance, Gene No. 2546: Unigene No. Rn.24561; for Behavior of gene caused by administration of chemical substance, Gene No. 3776: Unigene No. Rn.43232; for Behavior of gene caused by administration of chemical substance, Gene No. 3929: Unigene No. Rn.4620; for Behavior of gene caused by administration of chemical substance, Gene No. 1119: Unigene No. Rn.9757; for Behavior of gene caused by administration of chemical substance, Gene No. 6742: Unigene No. Rn.9779; for Behavior of gene caused by administration of chemical substance, Gene No. 5634: Unigene No. Rn.9862; for Behavior of gene caused by administration of chemical substance, Gene No. 5726: gene group (D), Unigene No. Rn.9939
Outline: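 Liver mRNA levels were compared with matched vehicle groups, with a shift of at least 1.5-fold up or down deemed significant unless its direction disagreed with other carcinogens. Test substances were dosed orally by gavage daily for 28 days to 5-week-old male F344 rats, four per group.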

[2] = classification of the substance (M+/M−); cited from earlier work
rodent = settings: classification of the substance (C+/C−); cited from earlier work
liver = settings: classification of the substance (Cr+/Cr−); cited from earlier work

SMILES	Behavior of gene caused by administration of chemical substance, Gene No. 4846 [1]	Behavior of gene caused by administration of chemical substance, Gene No. 2026 [1]	Behavior of gene caused by administration of chemical substance, Gene No. 4218 [1]	Behavior of gene caused by administration of chemical substance, Gene No. 6182 [1]	Behavior of gene caused by administration of chemical substance, Gene No. 5600 [1]	Behavior of gene caused by administration of chemical substance, Gene No. 1494 [1]	Behavior of gene caused by administration of chemical substance, Gene No. 2045 [1]	Behavior of gene caused by administration of chemical substance, Gene No. 2203 [1]	Behavior of gene caused by administration of chemical substance, Gene No. 533 [1]	Behavior of gene caused by administration of chemical substance, Gene No. 725 [1]	Behavior of gene caused by administration of chemical substance, Gene No. 1163 [1]	Behavior of gene caused by administration of chemical substance, Gene No. 4973 [1]	Behavior of gene caused by administration of chemical substance, Gene No. 4095 [1]	Behavior of gene caused by administration of chemical substance, Gene No. 1334 [1]	Behavior of gene caused by administration of chemical substance, Gene No. 6620 [1]	Behavior of gene caused by administration of chemical substance, Gene No. 6303 [1]	Behavior of gene caused by administration of chemical substance, Gene No. 5878 [1]	Behavior of gene caused by administration of chemical substance, Gene No. 1131 [1]	Behavior of gene caused by administration of chemical substance, Gene No. 1562 [1]	Behavior of gene caused by administration of chemical substance, Gene No. 1741 [1]	other results
C#C[C@]1(O)CC[C@H]2[C@@H]3CCc4cc(O)ccc4[C@H]3CC[C@@]21C [TS019, Ethinylestradiol]	+	−	−	+	−	−	−	+	+	+	+	+	+	+	+	+	+	+	+	+	Behavior of gene caused by administration of chemical substance, Gene No. 893 [1]: +; Behavior of gene caused by administration of chemical substance, Gene No. 6026 [1]: +; Behavior of gene caused by administration of chemical substance, Gene No. 154 [1]: +; Behavior of gene caused by administration of chemical substance, Gene No. 1993 [1]: +; Behavior of gene caused by administration of chemical substance, Gene No. 813 [1]: −; Behavior of gene caused by administration of chemical substance, Gene No. 2494 [1]: +; Behavior of gene caused by administration of chemical substance, Gene No. 2546 [1]: +; Behavior of gene caused by administration of chemical substance, Gene No. 3776 [1]: +; Behavior of gene caused by administration of chemical substance, Gene No. 3929 [1]: +; Behavior of gene caused by administration of chemical substance, Gene No. 1119 [1]: +; Behavior of gene caused by administration of chemical substance, Gene No. 6742 [1]: −; Behavior of gene caused by administration of chemical substance, Gene No. 5634 [1]: +; Behavior of gene caused by administration of chemical substance, Gene No. 5726 [1]: −; Mutagenicity by Ames test [2]: M−; Carcinogenicity (rodent): C+; Liver carcinogenicity (liver): Cr+
ClC=C(Cl)Cl [TS022, Trichloroethylene]	+	−	−	+	−	+	+	+	−	−	−	−	−	−	−	−	−	−	−	−	Behavior of gene caused by administration of chemical substance, Gene No. 893 [1]: −; Behavior of gene caused by administration of chemical substance, Gene No. 6026 [1]: −; Behavior of gene caused by administration of chemical substance, Gene No. 154 [1]: −; Behavior of gene caused by administration of chemical substance, Gene No. 1993 [1]: −; Behavior of gene caused by administration of chemical substance, Gene No. 813 [1]: −; Behavior of gene caused by administration of chemical substance, Gene No. 2494 [1]: −; Behavior of gene caused by administration of chemical substance, Gene No. 2546 [1]: −; Behavior of gene caused by administration of chemical substance, Gene No. 3776 [1]: −; Behavior of gene caused by administration of chemical substance, Gene No. 3929 [1]: −; Behavior of gene caused by administration of chemical substance, Gene No. 1119 [1]: −; Behavior of gene caused by administration of chemical substance, Gene No. 6742 [1]: +; Behavior of gene caused by administration of chemical substance, Gene No. 5634 [1]: −; Behavior of gene caused by administration of chemical substance, Gene No. 5726 [1]: −; Mutagenicity by Ames test [2]: M−; Carcinogenicity (rodent): C+; Liver carcinogenicity (liver): Cr−
